This series is described as follows: Binding energy by using the equation deltaG obsd = -RT ln KD. The series is classed as ADME.
For `C=C1CC[C@H](O)C/C1=C/C=C1\CCC[C@]2(C)[C@@H]([C@H](C)CCC(O)C(C)(C)O)CC[C@@H]12` (some centres not stated), the Binding energy turned out to be 55.2 kJ/mol.
With `OC[C@H]1OC(O)[C@H](O)[C@@H](O)[C@@H]1O` (some centres not stated) [DEXTROSE], the Binding energy came out at 36.4 kJ/mol.
Next, `NCCc1c[nH]c2ccccc12` [TRYPTAMINE]: 33.1 kJ/mol; `Nc1nc(N)c2nc(Cc3ccccc3)cnc2n1`: 51.5 kJ/mol; `NC1(C(=O)O)CCCC1` [CYCLOLEUCINE]: 20.5 kJ/mol.
Turning to `CC(=O)OC(Cc1ccc(C=O)cc1)c1ccc(C=O)cc1` (configuration not stated), the Binding energy worked out at 26.8 kJ/mol.
In turn, `OC1(c2ccc(Cl)c(C(F)(F)F)c2)CCN(CCCC(c2ccc(F)cc2)c2ccc(F)cc2)CC1` [PENFLURIDOL] gave a Binding energy of 41.4 kJ/mol.
Next, `CC(C)NCC(O)COc1cccc2ccccc12` (configuration not stated) [PROPRANOLOL]: 53.6 kJ/mol.
Next, `O=P(O)(O)C#CCCO`: 14.2 kJ/mol; `C=CCc1ccccc1OCC(O)CNC(C)C` (configuration not stated) [ALPRENOLOL]: 54 kJ/mol.
Next, `O=C(O)Cc1ccccc1Oc1ccc(Cl)cc1Cl` [FENCLOFENAC]: 38.5 kJ/mol.
As for `CC[C@@H](CO)NC(=O)[C@@H]1C=C2c3cccc4c3c(cn4C)C[C@H]2N(C)C1` [METHYSERGIDE], the Binding energy amounted to 51.5 kJ/mol.
Next, `Cc1cccc(C)c1N=C1NCCCS1` [XYLAZINE]: 47.3 kJ/mol; `CCc1nc(N)nc(N)c1C12CC3CC(CC(C3)C1)C2`: 56.1 kJ/mol; `c1ccc2c(CC3=NCCN3)cccc2c1` [NAPHAZOLINE]: 49.8 kJ/mol.
`CC/C(=C(\c1ccccc1)c1ccc(OCCN(C)C)cc1)c1ccccc1` [TAMOXIFEN] yielded a Binding energy of 51.5 kJ/mol.
Next, `C[N+](C)(C)C` [TETRAMETHYLAMMONIUM ION]: 15.1 kJ/mol; `O=C(O)COP(=O)(O)O` [PHOSPHOGLYCOLIC ACID]: 36.4 kJ/mol.
`NCCc1ccc(O)c(O)c1` [DOPAMINE] showed a Binding energy of 49.4 kJ/mol.
The compound `CN1CCN(C2=Nc3cc(Cl)ccc3Nc3ccccc32)CC1` [CLOZAPINE] had a Binding energy of 51.5 kJ/mol.
`O=P(O)(O)OC[C@H]1OC(O)(COP(=O)(O)O)[C@@H](O)[C@@H]1O` (some centres not stated) [FOSFRUCTOSE] yielded a Binding energy of 42.7 kJ/mol.
Next, `O=C1Nc2ccc(Cl)cc2C(c2ccccc2Cl)=NC1O` (configuration not stated) [LORAZEPAM]: 48.5 kJ/mol; `CC(C)(C)NC[C@H](O)COc1nsnc1N1CCOCC1` [TIMOLOL]: 54.4 kJ/mol.
Next, `O=c1[nH]c2ccccc2n1C1CCN(CCCC(c2ccc(F)cc2)c2ccc(F)cc2)CC1` [PIMOZIDE]: 53.6 kJ/mol; `Clc1cccc(Cl)c1N=C1NCCN1` [CLONIDINE]: 51.5 kJ/mol.
Next, `Oc1ccccc1` [PHENOL]: 11.3 kJ/mol; `Nc1ncnc2c1ncn2[C@@H]1O[C@H](CO)C[C@H]1O` [CORDYCEPIN]: 34.3 kJ/mol; `O=C1CN=C(c2ccccn2)c2cc(Br)ccc2N1` [BROMAZEPAM]: 43.1 kJ/mol.
Compound `CCCC(CCC)C(=O)O` [VALPROIC ACID] registered a Binding energy of 25.5 kJ/mol.
For `C[C@]12CCC(=O)C[C@@H]1CC[C@@H]1[C@@H]2CC[C@]2(C)[C@@H](O)CC[C@@H]12` (stereo in doubt; 155) [STANOLONE], the Binding energy was 54.8 kJ/mol.
Next, `O=C1CC(=O)N([C@@H]2O[C@H](COP(=O)(O)O)[C@@H](O)[C@H]2O)C(=O)N1`: 63.2 kJ/mol; `NC(=O)N1c2ccccc2C=Cc2ccccc21` [CARBAMAZEPINE]: 24.7 kJ/mol.

These data come from ChEMBL document CHEMBL1122538, “Functional group contributions to drug-receptor interactions” (J Med Chem, 1984).
